The text below walks through data of US20230036854A1, “HETEROCYCLIC SPIRO-COMPOUNDS AS AM2 RECEPTOR INHIBITORS” (THE UNIVERSITY OF SHEFFIELD, priority 2018, published 2023).

In this assay the target is T1, AM2 receptor (1321N1 cells transfected with CALCRL+RAMP3) (Homo sapiens, UniProt O60896+Q16602).
T1 construct: host or cells: 1321N1 cells
T1 sequence (Q16602 23-461): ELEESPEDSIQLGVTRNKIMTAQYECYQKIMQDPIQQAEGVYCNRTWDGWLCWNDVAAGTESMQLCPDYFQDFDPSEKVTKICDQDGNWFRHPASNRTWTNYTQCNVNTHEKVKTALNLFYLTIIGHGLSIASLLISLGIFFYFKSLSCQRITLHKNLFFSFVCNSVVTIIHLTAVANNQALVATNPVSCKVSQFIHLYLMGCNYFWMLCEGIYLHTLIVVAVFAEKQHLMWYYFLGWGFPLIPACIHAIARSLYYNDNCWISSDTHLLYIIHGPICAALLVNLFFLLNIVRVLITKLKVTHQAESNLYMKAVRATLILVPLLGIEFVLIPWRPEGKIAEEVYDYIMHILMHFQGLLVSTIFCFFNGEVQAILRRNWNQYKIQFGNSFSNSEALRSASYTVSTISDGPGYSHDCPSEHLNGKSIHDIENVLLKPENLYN
T1 sequence (O60896 24-148): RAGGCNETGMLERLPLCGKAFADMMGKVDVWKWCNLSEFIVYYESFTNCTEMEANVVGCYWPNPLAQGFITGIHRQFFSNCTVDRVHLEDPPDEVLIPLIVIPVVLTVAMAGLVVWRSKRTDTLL
The assay can be described thus: AM2 receptor inhibition, LANCE cAMP agonist-antagonist competition assay. It is filed as cell-based. The conditions noted are these: inhibition of AM induced cAMP activation, read-out: AM2 D2 protocol: pIC50 (converted). A digest of the protocol: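 cAMP was quantified by LANCE TR-FRET after an EC50 challenge with adrenomedullin (15 min, room temperature) in CALCRL+RAMP3-transfected 1321N1 cells (2500/well) that had first been exposed to compound for 30 min. Buffer was pH 7.4 HBSS with HEPES and BSA. Forskolin defined 100% stimulation and vehicle 0%.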
A general note: In TR-FRET formats the signal depends on donor and acceptor labels being close together.
For `CCC1(C(=O)N(CC(=O)Nc2ccc3c(c2)C[C@@]2(C3)C(=O)Nc3ncccc32)Cc2ccccc2CNC)CCN(C(=O)N2CC(C(F)(F)F)C2)CC1` [Example 112, (R)-4-Ethyl-N-(2-((methylamino)methyl)benzyl)-N-(2-oxo-2-((2′-oxo-1,1′,2′,3-tetrahydrospiro[indene-2,3′-pyrrolo[2,3-b]pyridin]-5-yl)amino)ethyl)-1-(3-(trifluoromethyl)azetidine-1-carbonyl)piperidine-4-carboxamide], the IC50 is 23.4 nM. As for `CCC1(C(=O)N(CC(=O)Nc2ccc3c(c2)C[C@@]2(C3)C(=O)Nc3ncccc32)Cc2ccccc2CNC)CCN(C(=O)NCC(F)(F)F)CC1` [Example 113, (R)-4-Ethyl-N4-(2-((methylamino)methyl)benzyl)-N4-(2-oxo-2-((2′-oxo-1,1′,2′,3-tetrahydrospiro[indene-2,3′-pyrrolo[2,3-b]pyridin]-5-yl)amino)ethyl)-N1-(2,2,2-trifluoroethyl)piperidine-1,4-dicarboxamide], the figure is 4.27 nM; as for `CCC1(C(=O)N(CC(=O)Nc2ccc3c(c2)C[C@@]2(C3)C(=O)Nc3ncccc32)Cc2ccccc2CNC)CCN(C(=O)OC(C)C)CC1` [Example 114, (R)-Isopropyl 4-ethyl-4-((2-((methylamino)methyl)benzyl)(2-oxo-2-((2′-oxo-1,1′,2′,3-tetrahydrospiro[indene-2,3′-pyrrolo[2,3-b]pyridin]-5-yl)amino)ethyl)carbamoyl)piperidine-1-carboxylate], 69.2 nM; as for `CCOC(=O)N1CCC(CC)(C(=O)N(CC(=O)Nc2ccc3c(c2)C[C@@]2(C3)C(=O)Nc3ncccc32)Cc2ccccc2CNC)CC1` [Example 115, (R)-Ethyl 4-ethyl-4-((2-((methylamino)methyl)benzyl)(2-oxo-2-((2′-oxo-1,1′,2′,3-tetrahydrospiro[indene-2,3′-pyrrolo[2,3-b]pyridin]-5-yl)amino)ethyl)carbamoyl)piperidine-1-carboxylate], 24.5 nM. As for `CCC1(C(=O)N(CC(=O)Nc2ccc3c(c2)C[C@@]2(C3)C(=O)Nc3ncccc32)Cc2ccccc2CNC)CCN(C(=O)OC)CC1` [Example 116, (R)-Methyl 4-ethyl-4-((2-((methylamino)methyl)benzyl)(2-oxo-2-((2′-oxo-1,1′,2′,3-tetrahydrospiro[indene-2,3′-pyrrolo[2,3-b]pyridin]-5-yl)amino)ethyl)carbamoyl)piperidine-1-carboxylate], the figure is 20 nM; as for `CCC1(C(=O)N(CC(=O)Nc2ccc3c(c2)C[C@@]2(C3)C(=O)Nc3ncccc32)Cc2ccccc2CNC)CCN(S(=O)(=O)NC)CC1` [Example 117, (R)-4-Ethyl-N-(2-((methylamino)methyl)benzyl)-1-(N-methylsulfamoyl)-N-(2-oxo-2-((2′-oxo-1,1′,2′,3-tetrahydrospiro[indene-2,3′-pyrrolo[2,3-b]pyridin]-5-yl)amino)ethyl)piperidine-4-carboxamide], 4.57 nM. With `CCC1(C(=O)N(CC(=O)Nc2ccc3c(c2)C[C@@]2(C3)C(=O)Nc3ncccc32)Cc2ccccc2CNC)CCN(S(=O)(=O)N(C)C)CC1` [Example 118, (R)-1-(N,N-Dimethylsulfamoyl)-4-ethyl-N-(2-((methylamino)methyl)benzyl)-N-(2-oxo-2-((2′-oxo-1,1′,2′,3-tetrahydrospiro[indene-2,3′-pyrrolo[2,3-b]pyridin]-5-yl)amino)ethyl)piperidine-4-carboxamide], the IC50 was 34.7 nM. As for `CNCc1ccccc1CN(CC(=O)Nc1ccc2c(c1)C[C@@]1(C2)C(=O)Nc2ncccc21)C(=O)C1(CC(F)(F)F)CCN(C(C)=O)CC1` [Example 120, (R)-1-Acetyl-N-(2-((methylamino)methyl)benzyl)-N-(2-oxo-2-((2′-oxo-1,1′,2′,3-tetrahydrospiro[indene-2,3′-pyrrolo[2,3-b]pyridin]-5-yl)amino)ethyl)-4-(2,2,2-trifluoroethyl)piperidine-4-carboxamide], the figure is 22.9 nM. As for `CNCc1ccccc1CN(CC(=O)Nc1ccc2c(c1)C[C@@]1(C2)C(=O)Nc2ncccc21)C(=O)C1(CC(F)(F)F)CCN(C(=O)N(C)C)CC1` [Example 121, (R)—N1,N1-Dimethyl-N4-(2-((methylamino)methyl)benzyl)-N4-(2-oxo-2-((2′-oxo-1,1′,2′,3-tetrahydrospiro[indene-2,3′-pyrrolo[2,3-b]pyridin]-5-yl)amino)ethyl)-4-(2,2,2-trifluoroethyl)piperidine-1,4-dicarboxamide], the figure is 10.5 nM. As for `CNCc1ccccc1CN(CC(=O)Nc1ccc2c(c1)C[C@@]1(C2)C(=O)Nc2ncccc21)C(=O)C1(CC2CC2)CCN(C(C)=O)CC1` [Example 122, (R)-1-Acetyl-4-(cyclopropylmethyl)-N-(2-((methylamino)methyl)benzyl)-N-(2-oxo-2-((2′-oxo-1,1′,2′,3-tetrahydrospiro[indene-2,3′-pyrrolo[2,3-b]pyridin]-5-yl)amino)ethyl)piperidine-4-carboxamide], the figure is 8.32 nM. For `CNCc1ccccc1CN(CC(=O)Nc1ccc2c(c1)C[C@@]1(C2)C(=O)Nc2ncccc21)C(=O)C1(C(C)C)CCN(C(C)=O)CC1` [Example 123, (R)-1-Acetyl-4-isopropyl-N-(2-((methylamino)methyl)benzyl)-N-(2-oxo-2-((2′-oxo-1,1′,2′,3-tetrahydrospiro[indene-2,3′-pyrrolo[2,3-b]pyridin]-5-yl)amino)ethyl)piperidine-4-carboxamide], the IC50 is 214 nM. As for `CNCc1ccccc1CN(CC(=O)Nc1ccc2c(c1)C[C@@]1(C2)C(=O)Nc2ncccc21)C(=O)C1(CC(C)C)CCN(C(C)=O)CC1` [Example 125], the figure is 21.4 nM; as for `CNCc1ccccc1CN(CC(=O)Nc1ccc2c(c1)C[C@@]1(C2)C(=O)Nc2ncccc21)C(=O)C1(COC)CCN(C(C)=O)CC1` [Example 126, (R)-1-Acetyl-4-(methoxymethyl)-N-(2-((methylamino)methyl)benzyl)-N-(2-oxo-2-((2′-oxo-1,1′,2′,3-tetrahydrospiro[indene-2,3′-pyrrolo[2,3-b]pyridin]-5-yl)amino)ethyl)piperidine-4-carboxamide], 174 nM. Take `CNCc1ccccc1CN(CC(=O)Nc1ccc2c(c1)C[C@@]1(C2)C(=O)Nc2ncccc21)C(=O)C1(OC)CCN(C(C)=O)CC1` [Example 127, 1-Acetyl-4-methoxy-N-[[2-(methylaminomethyl)phenyl]methyl]-N-[2-oxo-2-[[(3R)-2-oxospiro[1H-pyrrolo[2,3-b]pyridine-3,2′-indane]-5′-yl]amino]ethyl]piperidine-4-carboxamide]: the IC50 is 24.5 nM. To `CNCc1ccccc1CN(CC(=O)Nc1cc2c(cc1C)CC1(C2)C(=O)Nc2ncccc21)C(=O)C1(C)CCNCC1` (stereo not drawn) [Example 128, 4-Methyl-N-(2-((5-methyl-2′-oxo-1,1′,2′,3-tetrahydrospiro[indene-2,3′-pyrrolo[2,3-b]pyridin]-6-yl)amino)-2-oxoethyl)-N-(2-((methylamino)methyl)benzyl)piperidine-4-carboxamide] belongs 87.1 nM; to `CNCc1ccccc1CN(CC(=O)Nc1cc2c(cc1C)CC1(C2)C(=O)Nc2ncccc21)C(=O)C1(C)CCN(C(C)=O)CC1` (stereo not drawn) [Example 129, Acetyl-4-methyl-N-(2-((5-methyl-2′-oxo-1,1′,2′,3-tetrahydrospiro[indene-2,3′-pyrrolo[2,3-b]pyridin]-6-yl)amino)-2-oxoethyl)-N-(2-((methylamino)methyl)benzyl)piperidine-4-carboxamide], 107 nM.

Consider `CC(=O)N1CCC(C)(C(=O)N(CC(=O)Nc2cc3c(cc2C)CC2(C3)C(=O)Nc3ncccc32)Cc2ccccc2CN)CC1` (stereo not drawn) [Example 130, 1-Acetyl-N-(2-(aminomethyl)benzyl)-4-methyl-N-(2-((5-methyl-2′-oxo-1,1′,2′,3-tetrahydrospiro[indene-2,3′-pyrrolo[2,3-b]pyridin]-6-yl)amino)-2-oxoethyl)piperidine-4-carboxamide], for which the IC50 is 69.2 nM.

As to `CC1(C(=O)N(CC(=O)Nc2ccc3c(c2)C[C@@]2(C3)C(=O)Nc3ncccc32)Cc2ccccc2CN)CCNCC1` [Example 131, (R)—N-(2-(Aminomethyl)benzyl)-4-methyl-N-(2-oxo-2-((2′-oxo-1,1′,2′,3-tetrahydrospiro[indene-2,3′-pyrrolo[2,3-b]pyridin]-5-yl)amino)ethyl)piperidine-4-carboxamide], the IC50 was 302 nM.

With `CC(=O)N1CCC(C)(C(=O)N(CC(=O)Nc2ccc3c(c2)C[C@@]2(C3)C(=O)Nc3ncccc32)Cc2ccccc2CN)CC1` [Example 132, (R)-1-Acetyl-N-(2-(aminomethyl)benzyl)-4-methyl-N-(2-oxo-2-((2′-oxo-1,1′,2′,3-tetrahydrospiro[indene-2,3′-pyrrolo[2,3-b]pyridin]-5-yl)amino)ethyl)piperidine-4-carboxamide], the IC50 is 148 nM. As for `CCC1(C(=O)N(CC(=O)Nc2ccc3c(c2)C[C@@]2(C3)C(=O)Nc3ncccc32)Cc2ccccc2CN)CCN(C(C)=O)CC1` [Example 133, (R)-1-Acetyl-N-(2-(aminomethyl)benzyl)-4-ethyl-N-(2-oxo-2-((2′-oxo-1,1′,2′,3-tetrahydrospiro[indene-2,3′-pyrrolo[2,3-b]pyridin]-5-yl)amino)ethyl)piperidine-4-carboxamide], the figure is 6.92 nM; as for `CCNCc1ccccc1CN(CC(=O)Nc1ccc2c(c1)C[C@@]1(C2)C(=O)Nc2ncccc21)C(=O)C1(CC)CCN(C(C)=O)CC1` [Example 134, (R)-1-Acetyl-4-ethyl-N-(2-((ethylamino)methyl)benzyl)-N-(2-oxo-2-((2′-oxo-1,1′,2′,3-tetrahydrospiro[indene-2,3′-pyrrolo[2,3-b]pyridin]-5-yl)amino)ethyl)piperidine-4-carboxamide], 115 nM.
